Assay results published in patent publication US20230220443A1, “CHARACTERIZATION OF S-ADENOSYL-L-METHIONINE-CONSUMING ENZYMES WITH 1-STEP EZ-MTASE: A UNIVERSAL COUPLED-ASSAY” (ALBERT EINSTEIN COLLEGE OF MEDICINE, priority 2017, published 2023).
Several values for one entry are separate records, joined by “and”; a condition that tells them apart may be missing. Equal values may be shown once. Read-outs that look alike come from different tables or passages of the source. Values belong to the molecule of their own block, whether it stands above or below them.

Assays:
[1] = pKa from pH-dependence of fluorescence; format: physicochemical; settings: 50 mM buffer series
Protocol: Calibration of fluorescence signal for the 8-aza-A to 8-aza-I reaction—This procedure is very similar to the one described under “Differential Extinction Coefficients (Δε) for Deaminase Reaction”. Briefly, standard solutions (240 μL) of 8-aza-adenosine (0-25 μM; 12 data points) containing 50 mM buffer (pH 5.00-9.50), 10% glycerol and 1 mM βME, were loaded into a […] black flat bottom plate. 10-μL water per well were added to one data-set (12 concentrations of 8-aza-adensoine); 10-μL TM0936 solution (24.05 μM) were added to the remaining samples (12 concentrations of 8-azaadenosine at various pH values). The loss of fluorescence (Em=360 nm) from 8-azaadenosine standard solutions (Ex=282/292 nm) where recorded with a Spectramax M5 plate reader until no change in signal could be observed.
At a same pH, the comparison between end-point deaminase reactions and reference well (TM0936 added but no 8-aza-adenosine) provided the pH-dependence of 8-azainosyl fluorescence. […] Furthermore, the comparison between end-point deaminase reactions and reference well (various 8-aza-adenosine concentrations but no TM0936 added) provided the calibration curve of fluorescence signal for the 8-aza-adenosine to 8-aza-ionisine reaction. […]

[2] = pKa from pH-dependence of differential extinction coefficient (UV); format: physicochemical
Protocol: Nucleoside concentrations (stock solutions) were determined using known extinction coefficients for: adenosine, 259(ε/M^−1 cm^−1 15,400) and 8-aza-adenosine, 277(e/M-1 cm^−1 17,830). The deaminase reactions using these various substrates were performed in quartz cuvettes (1-cm light path; 3-mL reaction volume) and absorbance measurements were carried out with a NanoDrop 2000c (scan mode: 220-320 nm with multi scans superimposed; 37° C. and continuous stirring). Briefly, the 3-mL reactions contained 50 mM buffer (acetate: pH 4.00-5.00; MES: pH 5.00-6.50; phosphate: pH 5.80-8.00; TRIS: pH 7.50-8.50; CHES: pH 8.90-9.90), 1 mM βME and 10% glycerol. Five different concentrations of either adenosine or 8-aza-adenosine substrates were used (10, 20, 30, 40 and 50 μM). Mixtures were blanked before acquisition and reactions started upon addition of deaminase (TM0936, 2 μL of 240.5 μM enzyme stock). Over the course of the deaminase reaction (e.g. adenosine→inosine), optimum wavelengths at which the highest absorbance shift is observed were selected (i.e. adenosine reaction, λ=[…]; 8-aza-adenosine reaction, λ1=282 nm and λ2=292 nm). Scans were recorded until the absorbance at these monitored wavelengths reached a stable value (82). For each pH condition, the end-point absorbance shifts were plotted against initial nucleoside concentrations and fitted to a linear regression: each slope is a differential extinction coefficient (Δε) for deamination of the specific nucleoside substrate. Furthermore, the pH-dependence of differential extinction coefficient (Ae) for this deaminase reaction was obtained by plotting the pairs (Δε; pH) and fitting these to the following supplementary Eq. 2:
where ΔεHIGH pH and ΔεLOW pH are the extinction coefficient measured at optimum wavelengths (i.e. λ for adenosine and λ1 or λ2 for 8-aza-adenosine) for the deaminase reaction at high and low pH, respectively, and […] is the logarithm of acid dissociation constant for either inosine or 8-aza-inosine.

deaminase TM0936 = molecular target: T1, deaminase TM0936 (Thermotoga maritima, UniProt Q9X034); experiment: Deamination by coupling enzyme TM0936; format: biochemical
T1 construct: polyhistidine; made in house; host or cells: bacteria
T1 sequence (Q9X034 1-406): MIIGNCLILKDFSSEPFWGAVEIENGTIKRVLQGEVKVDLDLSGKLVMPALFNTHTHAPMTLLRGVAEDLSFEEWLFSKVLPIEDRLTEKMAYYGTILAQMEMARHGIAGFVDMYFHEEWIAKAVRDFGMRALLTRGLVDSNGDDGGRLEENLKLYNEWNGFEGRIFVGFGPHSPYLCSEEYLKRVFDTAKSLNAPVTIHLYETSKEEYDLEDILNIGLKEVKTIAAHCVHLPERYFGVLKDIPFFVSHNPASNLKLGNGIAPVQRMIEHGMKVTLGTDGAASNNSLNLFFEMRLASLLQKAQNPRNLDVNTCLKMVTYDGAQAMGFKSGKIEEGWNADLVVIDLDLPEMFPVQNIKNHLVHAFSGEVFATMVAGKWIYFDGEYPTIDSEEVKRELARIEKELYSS
Protocol: FIG. 9A-9D. Sinefungin is a positive control compatible with the 1-Step EZ-MTase assay. (A) MTAN-based assays catabolize the methyltransferase inhibitor sinefungin (SIN). […] (C) pH-dependence of the reaction between sinefungin and TM0936. […] (D) Inhibition of the sarcosine/dimethylglycine methyltransferase by sinefungin. […] The initial methyltransfer rates were recorded at 263 nm. Further analysis provided the inhibition constant Ki (1.8±0.4 μM).

[3] = cited from earlier work
GsSDMT = molecular target: T2, GsSDMT (Galdieria sulphuraria, UniProt M2XPA0); experiment: 1-Step EZ-MTase UV-based coupled assay, GsSDMT kinetics; format: biochemical; settings: pH=7.80, co-substrate saturating
T2 sequence (M2XPA0 2-297): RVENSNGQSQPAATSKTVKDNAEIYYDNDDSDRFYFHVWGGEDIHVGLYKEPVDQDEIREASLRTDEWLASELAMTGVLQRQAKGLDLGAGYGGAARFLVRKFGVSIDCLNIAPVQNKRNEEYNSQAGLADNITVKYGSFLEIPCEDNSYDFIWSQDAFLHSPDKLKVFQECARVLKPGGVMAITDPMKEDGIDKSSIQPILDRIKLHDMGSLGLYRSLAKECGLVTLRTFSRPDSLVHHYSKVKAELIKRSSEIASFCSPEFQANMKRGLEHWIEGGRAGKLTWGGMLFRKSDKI
Protocol: Kinetic behavior for sarcosine against GsSDMT (SAM sat.)—Experiments were conducted following matching CePRMT5 protocol above. Briefly, the 100-μL mixtures from a same row contained 100 mM phosphate buffer pH=7.80, 1 mM βME, 5% glycerol, 100 μM MgCl2, 4 μM coupling deaminase TM0936, 976 nM GsSDMT and various sarcosine concentrations (0.5-12.5 mM; in the first well, sarcosine was omitted to account for background signal—natural decomposition of SAM). Reactions started upon addition of SAM (750 μM saturating final concentration), 60-μL volumes were transferred onto UV plate and absorbance was recorded. Initial rates were first corrected for background signal, and then plotted against sarcosine concentrations. Fit to the Michaelis-Menten equation provided corresponding kinetic parameters.
Kinetic behavior for SAM against GsSDMT (sarcosine sat.)—Experiments were conducted following matching CePRMT5 protocol above. Briefly, the measurements consisted of two experimental subsets: MTase reactions (both SAM and sarcosine added) and MTase blanks (SAM was added without sarcosine to account for natural SAM decomposition). The 100-μL reaction mixtures from a same row contained 100 mM phosphate buffer pH=7.80, 1 mM βME, 5% glycerol, 100 μM MgCl2, 4 μM coupling deaminase TM0936, 195 nM GsSDMT and various SAM concentrations (49.9-750.2 μM). Reactions started upon addition of either sarcosine (10 mM saturating final concentration; MTase reactions) or water (MTase blanks), 60-μL volumes were transferred onto UV plate and absorbance was recorded at 263 nm. Initial rates were first corrected for background signal, and then plotted against SAM concentrations. Fit to the Michaelis-Menten equation provided corresponding kinetic parameters.
Kinetic behavior for 8-aza-SAM against MTases (acceptor sat.)—Briefly, kinetic parameters were determined at 20° C. in a UV-Star 96-well flat bottom plate (Greiner Bio-One, #655801) by continuous monitoring of absorbance at 282 nm using a SpectraMax M5 instrument (Molecular Devices). As for SAM experiments, the measurements consisted of two experimental subsets: MTase reactions (both 8-aza-SAM and acceptor added) and MTase blanks (8-aza-SAM was added without acceptor to account for natural 8-aza-SAM decomposition). The 250-μL (60-μL) reaction mixtures from a same row contained 50 mM phosphate buffer pH=7.60 (7.80), 1 mM βME, 10% glycerol (5% glycerol, 100 μM MgCl2), 4 μM coupling deaminase TM0936, either 1.5 μM CePRMT5 or 402 nM TbPRMT7 (or 610 nM GsSDMT) and various 8-aza-SAM concentrations. […] Initial rates were first corrected for background signal, then plotted against 8-aza-SAM concentrations and fitted to the Michaelis-Menten equation to yield corresponding kinetic parameters.

- pKa ([1]; pH 5.00-9.50, Ex/Em 282/360 nm): 7.5 ± 0.03
- pKa ([1]; pH 5.00-9.50, Ex/Em 292/360): 7.54 ± 0.04
- pKa ([2]; 282 nm): 7.29 ± 0.03
- pKa ([2]; 292 nm): 7.3 ± 0.03
Structure (SMILES): OC[C@H]1O[C@@H](n2nnc3c(O)ncnc32)[C@H](O)[C@@H]1O [8-aza-inosine]

Structure (SMILES): Nc1ncnc2c1ncn2[C@@H]1O[C@H](CSCC[C@H](N)C(=O)O)[C@@H](O)[C@H]1O [SAH, S-adenosyl-L-homocysteine]
- Km (deaminase TM0936; room temperature): 0.6 ± 0.2 µM
- kcat (deaminase TM0936; room temperature): 7.1 ± 0.4 s⁻¹

- kcat (GsSDMT): 1.5 ± 0.083 s⁻¹
Structure (SMILES): CNCC(=O)O [Sarcosine, sarcosine]
- pKa ([3]; methyl-amine group from sarcosine): 10.0
- pKa ([3]; sarcosine carboxylate): ≈ 2.2

Structure (SMILES): Nc1ncnc2c1ncn2[C@@H]1O[C@H](CO)[C@@H](O)[C@H]1O [adenosine]
- deamination by TM0936, slower than that of its 8-aza analog (deaminase TM0936; 10 μM substrate, 1 nM TM0936 (FIG. 7A)): 10 fold

- pKa ([2]; 263 nm): 8.72 ± 0.09
Structure (SMILES): OC[C@H]1O[C@@H](n2cnc3c(O)ncnc32)[C@H](O)[C@@H]1O [inosine]
- pKa ([3]; inosine, literature): 8.9 and 8.85
